From patent US9868746B2, “Substituted 5-aminothieno[2,3-C]pyridazine-6-carboxamide analogs as positive allosteric modulators of the muscarinic acetylcholine receptor M4” (Vanderbilt University, priority 2012, dated 2018)
pEC50: −log10 of the molar value.

Biological target: T1, mAChR M4 (Homo sapiens, UniProt P08173)
T1 construct: expressed in transfected cells; host or cells: CHO-K1 cells stably transfected with M4 cDNA and chimeric G-protein Gqi5
T1 sequence (P08173 1-479): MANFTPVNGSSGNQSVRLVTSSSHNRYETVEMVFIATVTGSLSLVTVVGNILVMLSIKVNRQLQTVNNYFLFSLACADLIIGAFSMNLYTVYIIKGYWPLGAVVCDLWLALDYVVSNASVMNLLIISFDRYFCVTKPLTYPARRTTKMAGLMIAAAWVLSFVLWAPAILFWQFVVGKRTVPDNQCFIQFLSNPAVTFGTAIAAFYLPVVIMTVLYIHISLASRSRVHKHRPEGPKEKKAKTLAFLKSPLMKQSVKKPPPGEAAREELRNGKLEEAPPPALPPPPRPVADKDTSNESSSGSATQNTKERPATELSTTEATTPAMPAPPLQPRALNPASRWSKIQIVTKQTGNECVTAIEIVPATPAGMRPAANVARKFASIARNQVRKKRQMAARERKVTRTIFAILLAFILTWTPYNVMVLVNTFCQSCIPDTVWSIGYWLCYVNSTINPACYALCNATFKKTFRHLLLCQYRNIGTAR
Experiment: mAChR M4 cell-based functional assay (calcium mobilization, potentiation of EC20 acetylcholine response)
Conditions: for Emax at 30 µM / Emax (%)*: % ACh maximum at 30 μM; for pEC50: mAChR M4 cell-based functional assay, >10,000 estimated for low potency compounds without plateau, read-out: EC50

Structure (SMILES) | Emax at 30 µM | pEC50 | Emax (%)*
Cc1nnc2sc(C(=O)N3CCC4(CCCC4)C3)c(N)c2c1C [Example B381] | 63% | 6.15 | 
Cc1nnc2sc(C(=O)N3CC(F)(c4ccc(-c5cnn(C)c5)cc4)C3)c(N)c2c1C [Example B319] | 51% | 6.41 | 
CCCCC(=O)N1CC2CN(C(=O)c3sc4nnc(C)c(C)c4c3N)CC2C1 (stereo not drawn) [Example B389] | 47% | 5.89 | 
Cc1cc(-c2ccc(CNC(=O)c3sc4nnc(C)c(C)c4c3N)cc2)cnc1F [Example B484] | 63% | 6.96 | 
COc1ccccc1C1(OC)CN(C(=O)c2sc3nnc(C)c(C)c3c2N)C1 [Example B294] | 43% | 5.96 | 
Cc1nnc2sc(C(=O)N3CC(F)(c4cccc(-c5cnn(C)c5)c4)C3)c(N)c2c1C [Example B325] | 62% | 6.23 | 
Cc1nnc2sc(C(=O)N3CC4CN(c5cccc(F)n5)CC4C3)c(N)c2c1C (stereo not drawn) [Example B442] | 66% | 6.51 | 
Nc1c(C(=O)NCc2ccc3c(c2)OCCO3)sc2nnc3c(c12)CCCC3 [Example B56] | 54% | 7.14 | 
Cc1ccc(S(=O)(=O)NC2CCN(C(=O)c3sc4nnc(C)c(C)c4c3N)C2)s1 (stereo not drawn) [Example B257] | 62% | 5.96 | 
Nc1c(C(=O)NCc2ccccc2)sc2nnc3c(c12)CCCC3 [Example B51] | 51% | 6.89 | 
Cc1nnc2sc(C(=O)NCc3ccc(-c4ccc5[nH]ncc5c4C)cc3)c(N)c2c1C [Example B473] | 61% | 7.05 | 
COC1CCN(C(=O)c2sc3nnc(C)c(C)c3c2N)C1 (stereo not drawn) [Example B272] | 55% | < 5.00 | 
Cc1nnc2sc(C(=O)N3CC(F)(c4cccc(N=[N+]=[N-])c4)C3)c(N)c2c1C [Example B401] | 54% | 5.51 | 
Cc1nnc2sc(C(=O)N3CCC(NS(=O)(=O)c4ccc(F)cc4)C3)c(N)c2c1C (stereo not drawn) [Example B223] | 61% | 5.62 | 
COC1(C)CN(C(=O)c2sc3nnc(C)c(C)c3c2N)C1 [Example B292] | 62% | < 5.00 | 
Cc1nnc2sc(C(=O)N3CCC(NC(=O)c4cccc(F)c4)C3)c(N)c2c1C (stereo not drawn) [Example B216] | 62% | < 5.00 | 
Cc1cc(F)ncc1-c1ccc(CNC(=O)c2sc3nnc(C)c(C)c3c2N)cc1 [Example B498] | 82% | 6.48 | 
Cc1nnc2sc(C(=O)N3CC4(C3)CN(S(=O)(=O)c3ccccc3)C4)c(N)c2c1C [Example B394] | 47% | 5.96 | 

Structure (SMILES) | Emax at 30 µM | pEC50 | Emax (%)*
Cc1nnc2sc(C(=O)NC3CNC3)c(N)c2c1C [Example B81] | 34% | < 5.00 | 
Cc1nnc2sc(C(=O)NCc3ccc4[nH]c(C)c(C)c4c3)c(N)c2c1C [Example B250] | 75% | 6.72 | 
Cc1nnc2sc(C(=O)N3C[C@@H]4C[C@@H]3CN4S(C)(=O)=O)c(N)c2c1C [Example B267] | 51% | 5.29 | 
Cc1nnc2sc(C(=O)N3CC(NS(=O)(=O)c4cn(C)cn4)C3)c(N)c2c1C [Example B174] | 51% | 5.17 | 
Cc1nnc2sc(C(=O)NC3CN(C(=O)OC(C)(C)C)C3)c(N)c2c1C [Example B83] | 58% | 7.54 | 
Cc1nnc2sc(C(=O)N3CCC(C4CCCCC4)C3)c(N)c2c1C (stereo not drawn) [Example B379] | 45% | 5.41 | 
Cc1nnc2sc(C(=O)NC3CN(C(=O)Nc4ccc(C(C)C)cc4)C3)c(N)c2c1C [Example B349] | 71% | 7.59 | 
CCCCOc1ccc(C(=O)N2CCC(NC(=O)c3sc4nnc(C)c(C)c4c3N)C2)cc1 (stereo not drawn) [Example B212] | 76% | 6.06 | 
Cc1nnc2sc(C(=O)NCc3ccc(-c4cncc5ccccc45)cc3)c(N)c2c1C [Example B503] | 56% | 5.96 | 
Cc1nnc2sc(C(=O)NCc3ccc(-c4cncnc4)cc3)c(N)c2c1C [Example B462] | 65% | 7.42 | 
COc1ccc(CNC(=O)c2sc3nnc4c(c3c2N)CCCC4)cc1 [Example B52] | 54% | 7.11 | 
Cc1nnc2sc(C(=O)N3CC(Sc4ccc(F)cc4F)C3)c(N)c2c1C [Example B419] | 56% | 6.66 | 
Cc1nnc2sc(C(=O)NCCNC(=O)Oc3ccccc3)c(N)c2c1C [Example B354] |  | 5.70 | 73%
COc1c(F)cc(CNC(=O)c2sc3nnc(C)c(C)c3c2N)cc1F [Example B313] | 84% | 7.74 | 
COc1ccc(SC2CN(C(=O)c3sc4nnc(C)c(C)c4c3N)C2)cc1 [Example B416] | 61% | 6.96 | 
Cc1nnc2sc(C(=O)NC3CCN(c4ccncc4)C3)c(N)c2c1C (stereo not drawn) [Example B266] | 70% | 6.66 | 
Cc1nnc2sc(C(=O)NC3CN(C(=O)Oc4ccc(C(F)(F)F)cc4)C3)c(N)c2c1C [Example B356] | 61% | 7.60 | 

Further lines, with some results ahead:

Emax at 30 µM | pEC50 | Structure (SMILES) | Emax (%)*
51% | 5.40 | Cc1nnc2sc(C(=O)NCCN(C)S(=O)(=O)c3ccccc3)c(N)c2c1C [Example B375] | 
 | 6.30 | Cc1nnc2sc(C(=O)NCc3ccc([S+]([O-])C(F)F)cc3)c(N)c2c1C (single isomer, unassigned) [Example B510] | 70%
68% | 7.49 | [2H]C([2H])(NC(=O)c1sc2nnc(C)c(C)c2c1N)c1ccc(OC)cc1 [Example B37] | 
48% | 5.37 | Cc1nnc2sc(C(=O)N3CCC(O)(c4ccccc4)C3)c(N)c2c1C (stereo not drawn) [Example B279] | 
48% | < 5.00 | Cc1nnc2sc(C(=O)N3CCC(NC(=O)CCc4ccccc4)C3)c(N)c2c1C (stereo not drawn) [Example B249] | 
63% | 6.92 | Cc1nnc2sc(C(=O)NCc3ccc([S+]([O-])C(F)F)cc3)c(N)c2c1C (single isomer, unassigned) [Example B491] | 
79% | 7.01 | Cc1nnc2sc(C(=O)NC3CN(C(=O)c4ccc5ccccc5c4)C3)c(N)c2c1C [Example B130] | 
56% | < 5.00 | Cc1nnc2sc(C(=O)NCC(C)(C)O)c(N)c2c1C [Example B25] | 
62% | 6.72 | Cc1nnc2sc(C(=O)NC3CN(C(=O)c4ccncc4)C3)c(N)c2c1C [Example B150] | 
53% | 7.01 | COCc1ccc(CNC(=O)c2sc3nnc(C)c(C)c3c2N)cc1 [Example B91] | 
57% | 8.02 | Cc1nnc2sc(C(=O)NC3CN(C(=O)Oc4ccccc4)C3)c(N)c2c1C [Example B151] | 
50% | 6.09 | Cc1nnc2sc(C(=O)N3CCC(NS(=O)(=O)CCCc4ccccc4)C3)c(N)c2c1C (stereo not drawn) [Example B234] | 
52% | < 5.00 | Cc1nnc2sc(C(=O)NCCNC(=O)C3CC3)c(N)c2c1C [Example B367] | 
56% | 6.77 | Cc1nnc2sc(C(=O)N3CC(F)(c4ccccc4)C3)c(N)c2c1C [Example B173] | 
60% | 5.92 | Cc1nnc2sc(C(=O)NCc3ccn(C)c(=O)c3)c(N)c2c1C [Example B466] | 
59% | 5.82 | Cc1nnc2sc(C(=O)NCCNC(=O)c3ccccc3)c(N)c2c1C [Example B347] | 
63% | 6.96 | Cc1nnc2sc(C(=O)NCc3ccc(S(=O)(=O)c4ccccc4)cc3)c(N)c2c1C [Example B505] | 
86% | 6.72 | Cc1nnc2sc(C(=O)NC3CN(C(=O)CCCc4ccccc4)C3)c(N)c2c1C [Example B120] | 
47% | 5.30 | Cc1nnc2sc(C(=O)NCCc3ccccn3)c(N)c2c1C [Example B94] | 
68% | 6.82 | Cc1nnc2sc(C(=O)NCc3ccc(S(C)(=O)=O)nc3)c(N)c2c1C [Example B330] | 
68% | 6.96 | Cc1ccccc1N1CCC(NC(=O)c2sc3nnc(C)c(C)c3c2N)C1 (stereo not drawn) [Example B269] | 
41% | < 5.00 | Cc1nnc2sc(C(=O)N3C[C@@H]4C[C@@H]3CN4C(=O)c3ccccc3)c(N)c2c1C [Example B263] | 
64% | 6.64 | Cc1nnc2sc(C(=O)NCc3ccc(-c4ccccc4)cc3)c(N)c2c1C [Example B472] | 
71% | 7.11 | Cc1nnc2sc(C(=O)NC3CN(C(=O)c4ccccc4)C3)c(N)c2c1C [Example B160] | 
74% | 6.11 | Cc1nnc2sc(C(=O)NCc3ccc(S(C)(=O)=O)cn3)c(N)c2c1C [Example B329] | 
68% | 6.74 | Cc1nnc2sc(C(=O)NCc3ccc(F)cc3)c(N)c2c1C [Example B435] | 
65% | 6.57 | Cc1nnc2sc(C(=O)NC3CN(C(=O)c4c(F)cccc4F)C3)c(N)c2c1C [Example B408] | 
71% | 7.64 | Cc1nnc2sc(C(=O)NCc3ccc([S+]([O-])C(F)F)cc3)c(N)c2c1C (stereo not drawn) [Example B478] | 
